The values below are quoted from earlier work in patent CN103919735A, “一种盐酸坦索罗辛缓释微丸及其制备方法” (Pharmaceutical (wuhan) Co Ltd, priority 2014, dated 2014).

The subject of this data set is BPH patients [BPH患者]. To be noted: for relief of LUTS caused by BPH (in words): large number of studies.

As to `CCOc1ccccc1OCCN[C@H](C)Cc1ccc(OC)c(S(N)(=O)=O)c1` [盐酸坦索罗辛], the “relief of LUTS caused by BPH (in words)” value is reported as “均能有效缓解”. Moreover, the “efficacy in long-term use (in words)” value (clinical study of 6 years in BPH, stated for α1 receptor blockers) is given as “能够维持稳定的疗效”. Also, the “time to symptom improvement after treatment” value (clinical, BPH) is 48 h.

Turning to `CC(C)(C)NC(=O)[C@H]1CC[C@H]2[C@@H]3CC[C@H]4NC(=O)C=C[C@]4(C)[C@H]3CC[C@]12C` [非那雄胺], the “relief of LUTS caused by BPH (in words)” value is listed as “均能有效缓解”.
